Measured values as given in PubChem BioAssay AID1963958 (Molecular Pharmacology Branch, DTP, NCI, 2024).

System: MDA-MB-231 multicell spheroids, viability
Test: Anticancer human tumor MDA-MB-231 cell line growth inhibition [PI3K];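 further: spheroids exposed to agents for seven days before reading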;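 on viability, T/C: percent of vehicle control luminescence with DMSO treated spheroids as 100%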
Conditions: for IC50: curve of first compound; for viability, T/C: stronger effect = lower value; active means viability on the fitted dose curve at most 10% of control; inactive means the rest
How it was run: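 Agents were dosed from a top concentration near clinical Cmax (otherwise 10 microM) in half-log decrements, alone or combined with PI3K inhibitors. The spheroids contain tumor cells plus endothelial (HUVEC) and MSC stroma; viability is measured.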

[1] = second compound 0.0316 µM, first compound 0.0316 µM
[2] = second compound 0.0316 µM, first compound 0.1 µM
[3] = second compound 0.0316 µM, first compound 0.316 µM
[4] = second compound 0.0316 µM, first compound 1 µM
[5] = second compound 0.0316 µM, first compound 3.16 µM
[6] = second compound 0.0316 µM, first compound 10 µM
[7] = second compound 0.1 µM, first compound 0.0316 µM
[8] = second compound 0.1 µM, first compound 0.1 µM
[9] = second compound 0.1 µM, first compound 0.316 µM
[10] = second compound 0.1 µM, first compound 1 µM
[11] = second compound 0.1 µM, first compound 3.16 µM
[12] = second compound 0.1 µM, first compound 10 µM
[13] = second compound 0.316 µM, first compound 0.0316 µM
[14] = second compound 0.316 µM, first compound 0.1 µM
[15] = second compound 0.316 µM, first compound 0.316 µM
[16] = second compound 0.316 µM, first compound 1 µM
[17] = second compound 0.316 µM, first compound 3.16 µM
[18] = second compound 0.316 µM, first compound 10 µM
[19] = second compound 1 µM, first compound 0.0316 µM
[20] = second compound 1 µM, first compound 0.1 µM
[21] = second compound 1 µM, first compound 0.316 µM
[22] = second compound 1 µM, first compound 1 µM
[23] = second compound 1 µM, first compound 3.16 µM
[24] = second compound 1 µM, first compound 10 µM
[25] = second compound 3.16 µM, first compound 0.0316 µM
[26] = second compound 3.16 µM, first compound 0.1 µM
[27] = second compound 3.16 µM, first compound 0.316 µM
[28] = second compound 3.16 µM, first compound 1 µM
[29] = second compound 3.16 µM, first compound 3.16 µM
[30] = second compound 3.16 µM, first compound 10 µM
[31] = second compound 10 µM, first compound 0.0316 µM
[32] = second compound 10 µM, first compound 0.1 µM
[33] = second compound 10 µM, first compound 0.316 µM
[34] = second compound 10 µM, first compound 1 µM
[35] = second compound 10 µM, first compound 3.16 µM
[36] = second compound 10 µM, first compound 10 µM

C[C@@H](NC(=O)c1ncnc(N)c1Cl)c1ncc(C(=O)Nc2cc(C(F)(F)F)c(Cl)cn2)s1 + Cc1nc(NC(=O)N2CCCC2C(N)=O)sc1-c1ccnc(C(C)(C)C(F)(F)F)c1
3.77 µM: IC50 (second compound 0.1 µM)
< 0.0316 µM: IC50 (second compound 10 µM)
0.86 µM: IC50 (second compound 0.316 µM)
0.352 µM: IC50 (second compound 1 µM)
0.0947 µM: IC50 (second compound 3.16 µM)
> 10 µM: IC50 (second compound 0.0316 µM)
inactive: viability, T/C [1] 112% | viability, T/C [2] 77.8% | viability, T/C [3] 75% | viability, T/C [4] 72.1% | viability, T/C [5] 61.3% | viability, T/C [6] 44.9% | viability, T/C [7] 99.4% | viability, T/C [8] 77.2% | viability, T/C [9] 61.8% | viability, T/C [10] 67.7% | viability, T/C [11] 53.6% | viability, T/C [12] 41.3% | viability, T/C [13] 81% | viability, T/C [14] 63.7% | viability, T/C [15] 53.9% | viability, T/C [16] 50.2% | viability, T/C [17] 49.9% | viability, T/C [18] 37.1% | viability, T/C [19] 74.8% | viability, T/C [20] 61% | viability, T/C [21] 47.1% | viability, T/C [22] 44.8% | viability, T/C [23] 38.8% | viability, T/C [24] 29.2% | viability, T/C [25] 60.2% | viability, T/C [26] 48.7% | viability, T/C [27] 40.6% | viability, T/C [28] 37.7% | viability, T/C [29] 35.7% | viability, T/C [30] 27.4% | viability, T/C [31] 42.3% | viability, T/C [32] 37.2% | viability, T/C [33] 32.3% | viability, T/C [34] 30.9% | viability, T/C [35] 24.6% | viability, T/C [36] 14.9%

Cn1ncc(Cl)c1-c1cc(C(=O)NC(CN)Cc2cccc(F)c2)sc1Cl (stereo unspecified) + Cc1nc(NC(=O)N2CCCC2C(N)=O)sc1-c1ccnc(C(C)(C)C(F)(F)F)c1
2.71 µM: IC50 (second compound 0.1 µM)
1.8 µM: IC50 (second compound 3.16 µM)
inactive: viability, T/C [1] 104% | viability, T/C [2] 89.2% | viability, T/C [3] 82.9% | viability, T/C [4] 71.8% | viability, T/C [5] 49.9% | viability, T/C [6] 28.8% | viability, T/C [7] 86.6% | viability, T/C [8] 83.3% | viability, T/C [9] 81% | viability, T/C [10] 66.2% | viability, T/C [11] 47.8% | viability, T/C [12] 24.4% | viability, T/C [13] 76% | viability, T/C [14] 80.8% | viability, T/C [15] 70.5% | viability, T/C [16] 64.8% | viability, T/C [17] 38.8% | viability, T/C [18] 25.1% | viability, T/C [19] 67.7% | viability, T/C [20] 72.3% | viability, T/C [21] 64.3% | viability, T/C [22] 57% | viability, T/C [23] 44.4% | viability, T/C [24] 24.5% | viability, T/C [25] 72.1% | viability, T/C [26] 66.6% | viability, T/C [27] 66.7% | viability, T/C [28] 57.6% | viability, T/C [29] 42.7% | viability, T/C [30] 26.6% | viability, T/C [31] 69% | viability, T/C [32] 62% | viability, T/C [33] 57.9% | viability, T/C [34] 60.4% | viability, T/C [35] 48% | viability, T/C [36] 23.5%
2.48 µM: IC50 (second compound 10 µM)
3.29 µM: IC50 (second compound 0.0316 µM)
1.9 µM: IC50 (second compound 0.316 µM) | IC50 (second compound 1 µM)

Cn1ncnc1[C@H]1c2n[nH]c(=O)c3cc(F)cc(c23)N[C@@H]1c1ccc(F)cc1 + Cc1nc(NC(=O)N2CCCC2C(N)=O)sc1-c1ccnc(C(C)(C)C(F)(F)F)c1
inactive: viability, T/C (second compound 0.0316 µM, first compound 0.000316 µM) 89.3% | viability, T/C (second compound 0.0316 µM, first compound 0.001 µM) 88.9% | viability, T/C (second compound 0.0316 µM, first compound 0.00316 µM) 86.8% | viability, T/C (second compound 0.0316 µM, first compound 0.01 µM) 83.4% | viability, T/C [1] 79% | viability, T/C [2] 72.6% | viability, T/C (second compound 0.1 µM, first compound 0.000316 µM) 88.4% | viability, T/C (second compound 0.1 µM, first compound 0.001 µM) 82% | viability, T/C (second compound 0.1 µM, first compound 0.00316 µM) 77.5% | viability, T/C (second compound 0.1 µM, first compound 0.01 µM) 68.7% | viability, T/C [7] 65% | viability, T/C [8] 63.2% | viability, T/C (second compound 0.316 µM, first compound 0.000316 µM) 67.2% | viability, T/C (second compound 0.316 µM, first compound 0.001 µM) 75.2% | viability, T/C (second compound 0.316 µM, first compound 0.00316 µM) 65.6% | viability, T/C (second compound 0.316 µM, first compound 0.01 µM) 64.1% | viability, T/C [13] 59.7% | viability, T/C [14] 53.5% | viability, T/C (second compound 1 µM, first compound 0.000316 µM) 68.3% | viability, T/C (second compound 1 µM, first compound 0.001 µM) 66% | viability, T/C (second compound 1 µM, first compound 0.00316 µM) 65.1% | viability, T/C (second compound 1 µM, first compound 0.01 µM) 60% | viability, T/C [19] 55.2% | viability, T/C [20] 49.7% | viability, T/C (second compound 3.16 µM, first compound 0.000316 µM) 64.5% | viability, T/C (second compound 3.16 µM, first compound 0.001 µM) 63.4% | viability, T/C (second compound 3.16 µM, first compound 0.00316 µM) 64.5% | viability, T/C (second compound 3.16 µM, first compound 0.01 µM) 54% | viability, T/C [25] 54.6% | viability, T/C [26] 50.4% | viability, T/C (second compound 10 µM, first compound 0.000316 µM) 66% | viability, T/C (second compound 10 µM, first compound 0.001 µM) 63.4% | viability, T/C (second compound 10 µM, first compound 0.00316 µM) 56% | viability, T/C (second compound 10 µM, first compound 0.01 µM) 59.8% | viability, T/C [31] 54.4% | viability, T/C [32] 48.8%
> 0.1 µM: IC50 (second compound 0.0316 µM) | IC50 (second compound 0.1 µM) | IC50 (second compound 0.316 µM) | IC50 (second compound 1 µM) | IC50 (second compound 3.16 µM) | IC50 (second compound 10 µM)
